Measured values published in patent US12139520B2 (priority 2020, dated 2024).
Read-outs that look alike come from different tables or passages of the source. Bridge positions count the residues as written; N and C are the ends. Square brackets hold non-standard residues; d marks the D form. Peptide text beside a SMILES is read from it. Hyp = O=C(O)[C@@H]1C[C@@H](O)CN1; Cit = NC(=O)NCCC[C@H](N)C(=O)O

How the values were obtained:
[1] = Physical stability of peptide analogues (Thioflavin T fibrillation); format: physicochemical; settings: maximum ThT signal normalized between hAMY maximum and buffer background; 40° C., shaking, four days; pH 7 per table title
How it was run: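 Maximum ThT emission at 480 nm, after LOESS smoothing, is given as percent of the span from buffer background to hAMY. Conditions: 50 mM buffer at pH 4 or 7, 4 μM dye, 40 °C, repeated shaking, readings every 10 min for four days.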

hAM1 receptor = hAM1 receptor (Homo sapiens, UniProt O60895+Q16602); experiment: cAMP assay for in vitro receptor activation, hAM1-R; format: cell-based
How it was run: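 Receptor activation, read as cAMP, was assessed in thawed cells of a monoclonal hAM1-overexpressing stable line, plated at 8000 cells/well in DPBS supplemented with 0.05% casein and 0.5 mM IBMX.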

[2] = cAMP assay, hAM1 receptor, read-out: hAM1R EC50

hAM1 receptor, sequence (Q16602 23-461): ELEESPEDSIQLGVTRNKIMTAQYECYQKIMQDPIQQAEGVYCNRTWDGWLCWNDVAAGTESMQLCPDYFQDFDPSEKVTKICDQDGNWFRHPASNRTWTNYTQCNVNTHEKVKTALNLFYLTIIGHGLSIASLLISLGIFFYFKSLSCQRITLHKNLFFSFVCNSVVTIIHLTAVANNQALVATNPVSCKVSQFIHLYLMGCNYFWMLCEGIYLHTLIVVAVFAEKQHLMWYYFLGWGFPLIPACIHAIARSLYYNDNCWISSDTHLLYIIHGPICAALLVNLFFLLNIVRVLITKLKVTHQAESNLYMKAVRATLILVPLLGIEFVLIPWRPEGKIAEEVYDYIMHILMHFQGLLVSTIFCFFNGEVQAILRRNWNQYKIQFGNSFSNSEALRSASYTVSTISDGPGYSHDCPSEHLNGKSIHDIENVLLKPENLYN
hAM1 receptor, sequence (O60895 43-175 partner): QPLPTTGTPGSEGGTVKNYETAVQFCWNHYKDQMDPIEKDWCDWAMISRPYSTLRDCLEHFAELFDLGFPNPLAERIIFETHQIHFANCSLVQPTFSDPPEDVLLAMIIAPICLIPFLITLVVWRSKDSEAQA

Row | Compound | Max ThT signal (%) [1] | EC50 (hAM1 receptor; [2]) | EC50 (hAM1 receptor)
1 | CC[C@H](C)[C@H](NC(=O)[C@H](CCC(N)=O)NC(=O)[C@H](Cc1c[nH]cn1)NC(=O)[C@H](C)NC(=O)[C@H](CC(C)C)NC(=O)[C@H](CCCNC(=N)N)NC(=O)[C@H](CCC(N)=O)NC(=O)[C@@H](NC(=O)[C@@H](NC(=O)[C@@H]1CSSC[C@H](NC(=O)CN)C(=O)N[C@@H](CCCNC(=N)N)C(=O)N[C@@H]([C@@H](C)O)C(=O)NCC(=O)N[C@@H]([C@@H](C)O)C(=O)N1)[C@@H](C)O)C(C)C)C(=O)N[C@@H](Cc1ccc(O)cc1)C(=O)N[C@@H](CCC(N)=O)C(=O)N[C@@H](Cc1ccccc1)C(=O)N[C@H](C(=O)N[C@@H](CC(=O)O)C(=O)N[C@@H](CCCCN)C(=O)N[C@@H](Cc1ccccc1)C(=O)N[C@@H](CCCCN)C(=O)N[C@@H](CC(=O)O)C(=O)N[C@@H](CC(N)=O)C(=O)N[C@H](C(=O)N[C@@H](C)C(=O)N1CCC[C@H]1C(=O)N[C@@H](CCCNC(=N)N)C(=O)N[C@@H](CO)C(=O)N[C@@H](CCCCN)C(=O)N[C@H](C(=O)N[C@@H](CO)C(=O)N1CCC[C@H]1C(=O)N[C@@H](CCC(N)=O)C(=O)N1CCC[C@H]1C(=O)N1C[C@H](O)C[C@H]1C(N)=O)[C@@H](C)CC)C(C)C)[C@@H](C)O [compound 203] (H-GCRTGTCTVQRLAHQIYQFTDKFKDNVAPRSKISPQP[Hyp]-NH2; disulfide 2-7; N-terminus assumed) | 1.200% |  | > 5 µM
2 | CC[C@H](C)[C@H](NC(=O)[C@H](CCC(N)=O)NC(=O)[C@H](Cc1c[nH]cn1)NC(=O)[C@H](C)NC(=O)[C@H](CC(C)C)NC(=O)[C@H](CCCNC(=N)N)NC(=O)[C@H](CCC(N)=O)NC(=O)[C@@H](NC(=O)[C@@H](NC(=O)[C@@H]1CSSC[C@H](NC(=O)CN)C(=O)N[C@@H](CCCNC(=N)N)C(=O)N[C@@H](CCSC)C(=O)NCC(=O)N[C@@H]([C@@H](C)O)C(=O)N1)[C@@H](C)O)C(C)C)C(=O)N[C@@H](Cc1ccc(O)cc1)C(=O)N[C@@H](CCC(N)=O)C(=O)N[C@@H](Cc1ccccc1)C(=O)N[C@H](C(=O)N[C@@H](CC(=O)O)C(=O)N[C@@H](CCCCN)C(=O)N[C@@H](Cc1ccccc1)C(=O)N[C@@H](CCCCN)C(=O)N[C@@H](CC(=O)O)C(=O)N[C@@H](CC(N)=O)C(=O)N[C@H](C(=O)N[C@@H](C)C(=O)N1CCC[C@H]1C(=O)N[C@@H](CCCNC(=N)N)C(=O)N[C@@H](CO)C(=O)N[C@@H](CCCCN)C(=O)N[C@H](C(=O)N[C@@H](CO)C(=O)N1CCC[C@H]1C(=O)N[C@@H](CCC(N)=O)C(=O)N[C@H](C(=O)N1C[C@H](O)C[C@H]1C(N)=O)[C@@H](C)O)[C@@H](C)CC)C(C)C)[C@@H](C)O [compound 173] (H-GCRMGTCTVQRLAHQIYQFTDKFKDNVAPRSKISPQT[Hyp]-NH2; disulfide 2-7; N-terminus assumed) | 4.400% | > 5 µM | 
3 | CC[C@H](C)[C@H](NC(=O)[C@H](CCC(N)=O)NC(=O)[C@H](Cc1c[nH]cn1)NC(=O)[C@H](C)NC(=O)[C@H](CC(C)C)NC(=O)[C@H](CCCNC(=N)N)NC(=O)[C@H](CCC(N)=O)NC(=O)[C@@H](NC(=O)[C@@H](NC(=O)[C@@H]1CSSC[C@H](NC(=O)CN)C(=O)N[C@@H](CCCNC(=N)N)C(=O)N[C@@H](Cc2ccccc2)C(=O)NCC(=O)N[C@@H]([C@@H](C)O)C(=O)N1)[C@@H](C)O)C(C)C)C(=O)N[C@@H](Cc1ccc(O)cc1)C(=O)N[C@@H](CCC(N)=O)C(=O)N[C@@H](Cc1ccccc1)C(=O)N[C@H](C(=O)N[C@@H](CC(=O)O)C(=O)N[C@@H](CCCCN)C(=O)N[C@@H](CC(=O)O)C(=O)N[C@@H](CCCCN)C(=O)N[C@@H](CC(=O)O)C(=O)N[C@@H](CC(N)=O)C(=O)N[C@H](C(=O)N[C@@H](C)C(=O)N1CCC[C@H]1C(=O)N[C@@H](CCCNC(=N)N)C(=O)N[C@@H](CO)C(=O)N[C@@H](CCCCN)C(=O)N[C@H](C(=O)N[C@@H](CO)C(=O)N1CCC[C@H]1C(=O)N[C@@H](CCC(N)=O)C(=O)N[C@H](C(=O)N1C[C@H](O)C[C@H]1C(N)=O)[C@@H](C)O)[C@@H](C)CC)C(C)C)[C@@H](C)O [compound 168] (H-GCRFGTCTVQRLAHQIYQFTDKDKDNVAPRSKISPQT[Hyp]-NH2; disulfide 2-7; N-terminus assumed) | 12.500% | > 5 µM | 

Further lines, with some results ahead:

Row | Max ThT signal (%) [1] | EC50 (hAM1 receptor; [2]) | Compound | EC50 (hAM1 receptor)
4 | 26.550% | > 5 µM | CC[C@H](C)[C@H](NC(=O)[C@H](CCCCN)NC(=O)[C@H](CO)NC(=O)[C@H](CCCNC(=N)N)NC(=O)[C@@H]1CCCN1C(=O)[C@H](C)NC(=O)[C@@H](NC(=O)[C@H](CC(N)=O)NC(=O)[C@H](CC(=O)O)NC(=O)[C@H](CCCCN)NC(=O)[C@H](CC(=O)O)NC(=O)[C@H](CCCCN)NC(=O)[C@H](CC(=O)O)NC(=O)[C@@H](NC(=O)[C@H](Cc1ccccc1)NC(=O)[C@H](CCC(N)=O)NC(=O)[C@H](Cc1ccc(O)cc1)NC(=O)[C@@H](NC(=O)[C@H](CCC(N)=O)NC(=O)[C@H](Cc1c[nH]cn1)NC(=O)[C@H](C)NC(=O)[C@H](CC(C)C)NC(=O)[C@H](CCCNC(N)=O)NC(=O)[C@H](CCC(N)=O)NC(=O)[C@@H](NC(=O)[C@@H](NC(=O)[C@@H]1CSSC[C@H](NC(=O)CN)C(=O)N[C@@H](CCCNC(=N)N)C(=O)N[C@@H]([C@@H](C)O)C(=O)NCC(=O)N[C@@H]([C@@H](C)O)C(=O)N1)[C@@H](C)O)C(C)C)[C@@H](C)CC)[C@@H](C)O)C(C)C)C(=O)NCC(=O)N1CCC[C@H]1C(=O)N[C@@H](CC(N)=O)C(=O)NCC(=O)N1C[C@H](O)C[C@H]1C(N)=O [compound 299] (H-GCRTGTCTVQ[Cit]LAHQIYQFTDKDKDNVAPRSKIGPNG[Hyp]-NH2; disulfide 2-7; N-terminus assumed) | 
5 | 19.600% | > 5 µM | CC[C@H](C)[C@H](NC(=O)[C@H](CCC(N)=O)NC(=O)[C@H](Cc1c[nH]cn1)NC(=O)[C@H](C)NC(=O)[C@H](CC(C)C)NC(=O)[C@H](CCCNC(=N)N)NC(=O)[C@H](CCC(N)=O)NC(=O)[C@@H](NC(=O)[C@@H](NC(=O)[C@@H]1CSSC[C@H](NC(=O)CN)C(=O)N[C@@H](CCCNC(=N)N)C(=O)N[C@@H]([C@@H](C)O)C(=O)NCC(=O)N[C@@H]([C@@H](C)O)C(=O)N1)[C@@H](C)O)C(C)C)C(=O)N[C@@H](Cc1c[nH]cn1)C(=O)N[C@@H](CCC(N)=O)C(=O)N[C@@H](Cc1ccccc1)C(=O)N[C@H](C(=O)N[C@@H](CC(=O)O)C(=O)N[C@@H](CCCCN)C(=O)N[C@@H](CC(=O)O)C(=O)N[C@@H](CCCCN)C(=O)N[C@@H](CC(=O)O)C(=O)N[C@@H](CC(N)=O)C(=O)N[C@H](C(=O)N[C@@H](C)C(=O)N1CCC[C@H]1C(=O)N[C@@H](CCCNC(=N)N)C(=O)N[C@@H](CO)C(=O)N[C@@H](CCCCN)C(=O)N[C@H](C(=O)N[C@@H](CO)C(=O)N1CCC[C@H]1C(=O)N[C@@H](CCC(N)=O)C(=O)N[C@H](C(=O)N1C[C@H](O)C[C@H]1C(N)=O)[C@@H](C)O)[C@@H](C)CC)C(C)C)[C@@H](C)O [compound 228] (H-GCRTGTCTVQRLAHQIHQFTDKDKDNVAPRSKISPQT[Hyp]-NH2; disulfide 2-7; N-terminus assumed) | 
6 | 26.350% | > 5 µM | CC[C@H](C)[C@H](NC(=O)[C@H](CCC(N)=O)NC(=O)[C@H](Cc1c[nH]cn1)NC(=O)[C@H](C)NC(=O)[C@H](CC(C)C)NC(=O)[C@H](Cc1c[nH]c2ccccc12)NC(=O)[C@H](CCC(N)=O)NC(=O)[C@@H](NC(=O)[C@@H](NC(=O)[C@@H]1CSSC[C@H](NC(=O)CN)C(=O)N[C@@H](CCCNC(=N)N)C(=O)N[C@@H]([C@@H](C)O)C(=O)NCC(=O)N[C@@H]([C@@H](C)O)C(=O)N1)[C@@H](C)O)C(C)C)C(=O)N[C@@H](Cc1ccc(O)cc1)C(=O)N[C@@H](CCC(N)=O)C(=O)N[C@@H](Cc1ccccc1)C(=O)N[C@H](C(=O)N[C@@H](CC(=O)O)C(=O)N[C@@H](CCCCN)C(=O)N[C@@H](CC(=O)O)C(=O)N[C@@H](CCCCN)C(=O)N[C@@H](CC(=O)O)C(=O)N[C@@H](CC(N)=O)C(=O)N[C@H](C(=O)N[C@@H](C)C(=O)N1CCC[C@H]1C(=O)N[C@@H](CCCNC(=N)N)C(=O)N[C@@H](CO)C(=O)N[C@@H](CC(N)=O)C(=O)N[C@H](C(=O)N[C@@H](CO)C(=O)N1CCC[C@H]1C(=O)N[C@@H](CC(N)=O)C(=O)NCC(=O)N1C[C@H](O)C[C@H]1C(N)=O)C(C)C)C(C)C)[C@@H](C)O [compound 360] (H-GCRTGTCTVQWLAHQIYQFTDKDKDNVAPRSNVSPNG[Hyp]-NH2; disulfide 2-7) | 
7 | 16.950% | > 5 µM | CC[C@H](C)[C@H](NC(=O)[C@H](CCCCN)NC(=O)[C@@H](NC(=O)[C@H](CCCNC(=N)N)NC(=O)[C@@H]1CCCN1C(=O)[C@H](C)NC(=O)[C@@H](NC(=O)[C@H](CC(N)=O)NC(=O)[C@H](CC(=O)O)NC(=O)[C@H](CCCCN)NC(=O)[C@H](CC(=O)O)NC(=O)[C@H](CCCCN)NC(=O)[C@H](CC(=O)O)NC(=O)[C@@H](NC(=O)[C@H](Cc1ccccc1)NC(=O)[C@H](CCC(N)=O)NC(=O)[C@H](Cc1ccc(O)cc1)NC(=O)[C@@H](NC(=O)[C@H](CCC(N)=O)NC(=O)[C@H](Cc1c[nH]cn1)NC(=O)[C@H](C)NC(=O)[C@H](CC(C)C)NC(=O)[C@H](CCCNC(N)=O)NC(=O)[C@H](CCC(N)=O)NC(=O)[C@@H](NC(=O)[C@@H](NC(=O)[C@@H]1CSSC[C@H](NC(=O)CN)C(=O)N[C@@H](CCCNC(=N)N)C(=O)N[C@@H]([C@@H](C)O)C(=O)NCC(=O)N[C@@H]([C@@H](C)O)C(=O)N1)[C@@H](C)O)C(C)C)[C@@H](C)CC)[C@@H](C)O)C(C)C)[C@@H](C)O)C(=O)NCC(=O)N1CCC[C@H]1C(=O)N[C@@H](CCC(N)=O)C(=O)NCC(=O)N1C[C@H](O)C[C@H]1C(N)=O [compound 301] (H-GCRTGTCTVQ[Cit]LAHQIYQFTDKDKDNVAPRTKIGPQG[Hyp]-NH2; disulfide 2-7; N-terminus assumed) | 
